The numbers were not newly measured in patent publication US7838696B2, “Hydroconversion process employing multi-metallic catalysts and method for making thereof” (Chevron U. S. A. Inc., priority 2007, dated 2010), which cites them from elsewhere.

Molecules are shown by their SMILES.

For this data set, the system named is rats. Particulars: rat, in vivo, po.

The LD50 is the dose at which mortality reaches 50%. Consider `O=CC(=O)O` [glyoxylic, glyoxylic acid], for which the 50% lethal dose (LD50) is listed as 3000 mg/kg.
